These results are taken from US12194038B2, “Use of flibanserin in preparation of drug for treating androgenic alopecia” (SHANGHAI DIMAIHE BIOTECHNOLOGY CO., LTD., priority 2022, dated 2025).

Where “and” joins values, the source holds several entries; their conditions need not be identical. Equal values may be shown once. Read-outs that look alike come from different tables or passages of the source.

The test system of one assay is AGA model mice. Briefly: Hair restoration in testosterone propionate-induced AGA model mice. It is filed as in vivo. The conditions noted are these: for Effective rate of animal hair restoration (effective rate of drug) / Hair restoration compared with the model group: AGA model mice, intragastric administration for 4 weeks. The protocol:
Animal experiment-related reagents: testosterone propionate, Batch No. T818615. Soybean oil, Batch No. A23GS146219. 80 mg of testosterone propionate was dissolved in 40 mL of soybean oil to prepare a solution at 2 mg/mL. […] Flibanserin, Batch No. W1608745834, 0.32 mg of flibanserin was dissolved in 20 mL of physiological saline to prepare a solution at 1.6×10^−2 mg/mL
The experimental animals are male […] mice, non-inbred closed colony, weighing 18-22 g, aged 5 weeks, certificate number: No. 202207119, provided by the Institute of Comparative Medicine, Yangzhou University. In the laboratory, room temperature is 20° C.-22° C., the relative humidity is 40%-60%, ventilation is provided by a ventilation fan, and the natural light source is provided for 12 h/day. The mice were caged, with 7 mice per cage, and the cages were cleaned every three days.
Before the injection of testosterone propionate for modeling, pre-treatment was first performed, wherein the pre-treatment comprises: fixing the mice, shaving off the hairs on the back of the mice by an electric shaver, and unhairing vellus hairs using an unhairing cream. […] After successful modeling, the intragastric administration was performed for 4 weeks on the basis of the injection of the testosterone propionate solution. After the administration was completed, the effective rate (percentage of hair restoring mice to the total number of mice) of the drug was subjected to statistical analysis, and the ratio of the area of the hair growing part to the area of the unhairing part in mice was subjected to statistical analysis. The mouse hairs were taken from multiple points at different hair restoring parts on the back of the mice for length measurement and statistical analysis. The mice were sacrificed by cervical dislocation, and the back skin was taken, wherein a part of the back skin was frozen at −80° C. for extracting protein and performing a nuclear protein and cytoplasmic protein separation experiment to explore the inhibition of the drug on the nuclear localization of the androgen receptor dimer, and a part of the back skin was fixed with 4% paraformaldehyde (Cat. No.: AF030) for 48 h, and then subjected to tissue section and HE staining. […] Determination criteria: The unhairing area of the back of the mice after unhairing was measured, noted as A, the hair growing area of the back of the mice after the completion of the administration was measured, noted as B, and the mean value of the […] in each group was taken as the effective rate of animal hair restoration.

For assay [1], the system named is Lncap cells. Conditions: 48 h.
The target in another assay is T1, androgen receptor (Mus musculus, UniProt P19091).
T1 construct: Mouse primary hair follicle dermal papilla cells were extracted according to enzymatic digestion and cultured for 10 days; endogenous in cells; host or cells: mouse primary hair follicle dermal papilla cells
T1 sequence (P19091 1-899): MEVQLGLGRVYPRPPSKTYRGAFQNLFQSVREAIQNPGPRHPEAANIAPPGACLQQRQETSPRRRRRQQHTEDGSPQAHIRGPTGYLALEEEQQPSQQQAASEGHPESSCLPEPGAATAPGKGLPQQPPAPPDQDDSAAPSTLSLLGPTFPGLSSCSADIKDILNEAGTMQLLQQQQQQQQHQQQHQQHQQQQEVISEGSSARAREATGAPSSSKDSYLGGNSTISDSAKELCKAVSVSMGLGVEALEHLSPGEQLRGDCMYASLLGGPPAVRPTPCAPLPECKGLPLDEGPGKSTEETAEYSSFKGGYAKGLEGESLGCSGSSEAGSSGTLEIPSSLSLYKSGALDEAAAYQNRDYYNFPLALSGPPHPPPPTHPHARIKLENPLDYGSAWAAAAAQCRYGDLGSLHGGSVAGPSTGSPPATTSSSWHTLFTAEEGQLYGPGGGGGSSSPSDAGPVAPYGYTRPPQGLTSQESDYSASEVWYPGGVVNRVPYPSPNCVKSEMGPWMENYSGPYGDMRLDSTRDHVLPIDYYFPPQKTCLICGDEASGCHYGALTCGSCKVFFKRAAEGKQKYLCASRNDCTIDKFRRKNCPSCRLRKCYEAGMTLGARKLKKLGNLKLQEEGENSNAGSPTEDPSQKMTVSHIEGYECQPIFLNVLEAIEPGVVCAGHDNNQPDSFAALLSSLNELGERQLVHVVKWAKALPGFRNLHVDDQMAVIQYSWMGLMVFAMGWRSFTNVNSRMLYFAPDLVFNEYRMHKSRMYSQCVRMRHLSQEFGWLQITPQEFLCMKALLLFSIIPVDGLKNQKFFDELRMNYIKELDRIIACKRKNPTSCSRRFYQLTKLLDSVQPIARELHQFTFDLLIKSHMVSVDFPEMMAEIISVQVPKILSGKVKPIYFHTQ
As to the kind of experiment: Nuclear protein and cytoplasmic protein separation experiment in primary hair follicle dermal papilla cells. It is filed as cell-based. The conditions noted are these: 48 h.

The test system of assay [2] is Lncap cells. Briefly: Inhibition of proliferation of DHT-stimulated Lncap cells by flibanserin (MTT). The conditions noted are these: for OD value in administration group-OD value in control group: replicate values. Type of assay: cell-based, human.
Setting [3] is: HE staining of tissue sections, compared with the model group.
[4] abbreviates: DHT 10^−8 mol/L + flibanserin 5 and 1 μmol/L (both doses), compared with finasteride group and DHT group.

Take `CC(C)(C)NC(=O)[C@H]1CC[C@H]2[C@@H]3CC[C@H]4NC(=O)C=C[C@]4(C)[C@H]3CC[C@]12C` [Finasteride, finasteride]: the “Effective rate of animal hair restoration (effective rate of drug)” value with AGA model mice and with AGA model mice (listed as finasteride) was 71.4% throughout. The “Hair restoration compared with the model group” value in the assay on AGA model mice (listed as finasteride) is “restored to varying degrees”.
As to `C[C@]12CCC(=O)C[C@@H]1CC[C@@H]1[C@@H]2CC[C@]2(C)[C@@H](O)CC[C@@H]12` [DHT, dihydrotestosterone], the Mean proliferation rate is listed as −12.91% with Lncap cells [1] (DHT 10^−5 uM); 6.30% in the assay with Lncap cells [1] (DHT 10^−6 uM); 7.77% in the assay on Lncap cells [1] (DHT 10^−7 uM); 9.47% in the assay with Lncap cells [1] (DHT 10^−8 uM); 10.01% with Lncap cells [1] (DHT 10^−9 uM); 2.79% with Lncap cells [1] (DHT 10^−10 uM).
Consider `O=c1[nH]c2ccccc2n1CCN1CCN(c2cccc(C(F)(F)F)c2)CC1` [Flibanserin, flibanserin], for which the “Effective rate of animal hair restoration (effective rate of drug)” value with AGA model mice and in the assay on AGA model mice (listed as flibanserin) was 85.7% throughout. Also, the “Hair restoration compared with the model group” value in the assay on AGA model mice (listed as flibanserin) is “restored to varying degrees”. In addition, in the assay on AGA model mice (setting [3]), the “Diameter of hair follicles” value is listed as “increase”. Moreover, in the assay on AGA model mice (setting [3]), the “Number of hair follicles per unit area” value was “increase”. For the same compound, the “Ratio of anagen to telogen” value with AGA model mice (setting [3]) is “increase”. In the assay on AGA model mice (setting [3]), the “Ratio of epidermal thickness to dermal thickness” value was “increase”. Moreover, the Hair length entry in the assay on AGA model mice (compared with the model group) is recorded as “increase”. Also, the “Total level of the androgen receptor” value at androgen receptor (DHT 10^−8 mol/L + finasteride 5 μmol/L or flibanserin 5 and 1 μmol/L, compared with DHT group) is reported as “no significant difference”. For the same compound, the “Level of the androgen receptor in the cytoplasm” value on androgen receptor (setting [4]) is “increased”. For the same compound, the “Level of the androgen receptor in the nucleus” value at androgen receptor (setting [4]) is reported as “decreased”. Moreover, the inhibition at 0.001 µM in the assay with Lncap cells [2] (Homo sapiens, LNCaP, flibanserin 0.001 uM, 48 h, after modeling with 10^−9 M DHT, read-out: Mean proliferation inhibition rate) was determined as 11.9%. Besides, in the assay on Lncap cells [2] (Homo sapiens, LNCaP, flibanserin 0.1 uM, 48 h, after modeling with 10^−9 M DHT, read-out: Mean proliferation inhibition rate), the inhibition at 0.1 µM was found to be 11%. The inhibition at 1 µM in the assay on Lncap cells [2] (Homo sapiens, LNCaP, flibanserin 1 uM, 48 h, after modeling with 10^−9 M DHT, read-out: Mean proliferation inhibition rate) turned out to be 20.1%. In the assay on Lncap cells [2] (Homo sapiens, LNCaP, flibanserin 10 uM, 48 h, after modeling with 10^−9 M DHT, read-out: Mean proliferation inhibition rate), the inhibition at 10 µM came to 45.9%. Also, the inhibition at 50 µM with Lncap cells [2] (Homo sapiens, LNCaP, flibanserin 50 uM, 48 h, after modeling with 10^−9 M DHT, read-out: Mean proliferation inhibition rate) was 82.4%. Further, the inhibition at 100 µM with Lncap cells [2] (Homo sapiens, LNCaP, flibanserin 100 uM, 48 h, after modeling with 10^−9 M DHT, read-out: Mean proliferation inhibition rate) stood at 85.5%. The “OD value in administration group-OD value in control group” value in the assay on Lncap cells [2] (flibanserin 0.001 uM, 48 h) is 0.72 and 0.981 and 0.8943 and 0.8405 and 0.9681; in the assay on Lncap cells [2] (flibanserin 0.1 uM, 48 h), 0.7821 and 0.9153 and 0.9204 and 0.8399 and 0.9938; with Lncap cells [2] (flibanserin 1 uM, 48 h) it was 0.7947 and 0.8164 and 0.702 and 0.8345 and 0.8472; in the assay on Lncap cells [2] (flibanserin 10 uM, 48 h), 0.3592 and 0.6076 and 0.5562 and 0.5302 and 0.6538; in the assay with Lncap cells [2] (flibanserin 50 uM, 48 h) it was 0.1738 and 0.1424 and 0.1556 and 0.1886 and 0.2218; in the assay with Lncap cells [2] (flibanserin 100 uM, 48 h), 0.1345 and 0.1157 and 0.119 and 0.1751 and 0.1812. For the same compound, the “Inhibition of the proliferation of Lncap cells” value in the assay on Lncap cells [2] (flibanserin at a low concentration, MTT) is “can inhibit”.
